Data from publication PMC4133103 (DNA repair, 2014).
Where two headings read alike, the source gives them in different places.

T1: Dpo4•DNA binary complex (Saccharolobus solfataricus, UniProt Q97W02)
T1 sequence (Q97W02 1-352): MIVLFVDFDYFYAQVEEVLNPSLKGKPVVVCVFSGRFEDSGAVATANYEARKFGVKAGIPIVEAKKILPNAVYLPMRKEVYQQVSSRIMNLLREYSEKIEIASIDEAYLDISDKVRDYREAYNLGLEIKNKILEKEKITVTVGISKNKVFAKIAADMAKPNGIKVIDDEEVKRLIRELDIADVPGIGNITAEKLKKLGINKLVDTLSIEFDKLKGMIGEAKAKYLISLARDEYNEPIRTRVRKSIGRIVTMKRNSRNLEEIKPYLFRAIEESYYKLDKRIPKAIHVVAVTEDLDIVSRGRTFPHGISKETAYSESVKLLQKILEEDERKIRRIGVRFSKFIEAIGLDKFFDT

T2: Dpo4 (DNA polymerase IV) (Sulfolobus solfataricus, UniProt Q97W02 1-352)
T2 sequence: T1 sequence (Q97W02 1-352)

B1: 22/26-mer-dGC8-N-ABA (dsDNA)
DNA 1: AACGACGGCCAGTGAATTCGCG
DNA 2: CCCGCGCGAATTCACTGGCCGTCGTT
modifications: N-(2'-deoxyguanosin-8-yl)-3-aminobenzanthrone (dGC8-N-ABA) at G6 of strand 2 (from 5' end)
B2: 21/26-mer-dGC8-N-ABA (dsDNA)
DNA 1: AACGACGGCCAGTGAATTCGC
DNA 2: CCCGCGCGAATTCACTGGCCGTCGTT
modifications: N-(2'-deoxyguanosin-8-yl)-3-aminobenzanthrone (dGC8-N-ABA) at G6 of strand 2 (from 5' end)

How the values were obtained:
Dpo4•DNA binary complex = biological target: T1, Dpo4•DNA binary complex; assay: Substrate specificity assay; assay type: biochemical, Sulfolobus solfataricus; settings: for kp / Kd: Dpo4 120 nM, 37 °C; for Probability: efficiency/sum of efficiencies × 100; for Fidelity: incorrect/(correct+incorrect) efficiency; for Kd: read-out: Kd,dNTP
[1] = test system: nucleotide excision repair-deficient human XPA cells; settings: cited from earlier work
[2] = test system: Salmonella typhimurium (TA98); settings: cited from earlier work
Dpo4 (DNA polymerase IV) = biological target: T2, Dpo4 (DNA polymerase IV); assay: EMSA
[3] = DNA substrate 18/26-mer-dG^C8-N-ABA
[4] = DNA substrate 18/26-mer-dG^C8-N-ABA 30 nM
[5] = DNA substrate 18/26-mer-dG^C8-N-ABA vs control 18/26-mer
[6] = DNA substrate 19/26-mer-dG^C8-N-ABA
[7] = DNA substrate 19/26-mer-dG^C8-N-ABA 30 nM
[8] = DNA substrate 19/26-mer-dG^C8-N-ABA vs control 19/26-mer
[9] = DNA substrate 20/26-mer-dG^C8-N-ABA (pause site)
[10] = DNA substrate 20/26-mer-dG^C8-N-ABA (pause site) 30 nM
[11] = DNA substrate 20/26-mer-dG^C8-N-ABA vs control 20/26-mer
[12] = DNA substrate 20/26-mer-dG^C8-N-ABA
[13] = DNA substrate 21/26-mer-dG^C8-N-ABA (pause site)
[14] = DNA substrate 21/26-mer-dG^C8-N-ABA (pause site) 30 nM
[15] = DNA substrate 21/26-mer-dG^C8-N-ABA vs control 21/26-mer
[16] = DNA substrate 21/26-mer-dG^C8-N-ABA
[17] = DNA substrate 22/26-mer-dG^C8-N-ABA 30 nM
[18] = DNA substrate 22/26-mer-dG^C8-N-ABA vs control 22/26-mer
[19] = DNA substrate 22/26-mer-dG^C8-N-ABA
[20] = DNA substrate 21/26-mer-dG^C8-N-ABA (pause site, extension) 30 nM

Molecule	(kp/Kd, dNTP)damaged (Dpo4•DNA binary complex; [3])	Efficiency Ratio (kp/Kd, dNTP)control/(kp/Kd, dNTP)damaged (Dpo4•DNA binary complex; [5])	Probability (Dpo4•DNA binary complex; [3])	(kp/Kd, dNTP)damaged (Dpo4•DNA binary complex; [6])	kp (Dpo4•DNA binary complex; [7])	Efficiency Ratio (kp/Kd, dNTP)control/(kp/Kd, dNTP)damaged (Dpo4•DNA binary complex; [8])	Probability (Dpo4•DNA binary complex; [6])	Fidelity (Dpo4•DNA binary complex; [6])	(kp/Kd, dNTP)damaged (Dpo4•DNA binary complex; [9])	Efficiency Ratio (kp/Kd, dNTP)control/(kp/Kd, dNTP)damaged (Dpo4•DNA binary complex; [11])	Probability (Dpo4•DNA binary complex; [12])	(kp/Kd, dNTP)damaged (Dpo4•DNA binary complex; [13])	kp (Dpo4•DNA binary complex; [14])	Efficiency Ratio (kp/Kd, dNTP)control/(kp/Kd, dNTP)damaged (Dpo4•DNA binary complex; [15])	Probability (Dpo4•DNA binary complex; [16])	Fidelity (Dpo4•DNA binary complex; [16])	Efficiency Ratio (kp/Kd, dNTP)control/(kp/Kd, dNTP)damaged (Dpo4•DNA binary complex; [18])	Probability (Dpo4•DNA binary complex; [19])	Kd (Dpo4•DNA binary complex; [20])	Kd (Dpo4•DNA binary complex; [17])	also measured
Nc1ccn([C@H]2C[C@H](O)[C@@H](COP(=O)(O)OP(=O)(O)OP(=O)(O)O)O2)c(=O)n1 [dCTP]	88000 M⁻¹ s⁻¹	1.25	99.95	6.4 M⁻¹ s⁻¹	(1.4 ± 0.2) × 10^−3 s^−1	22	0.06	6.7 × 10^−4	490 M⁻¹ s⁻¹	120	98.93	2.7 M⁻¹ s⁻¹	(4.3 ± 0.1) × 10^−4 s^−1	12	10.34	1.1 × 10^−1	11	99.55	160 ± 20 µM	1400 ± 300 µM	kp (Dpo4•DNA binary complex; [4]): 2.83 ± 0.08 s⁻¹; kp (Dpo4•DNA binary complex; [10]): 0.25 ± 0.02 s⁻¹; kp (Dpo4•DNA binary complex; [17]): 4.5 ± 0.7 s⁻¹; Kd (Dpo4•DNA binary complex; [4]): 32 ± 5 µM; Kd (Dpo4•DNA binary complex; [7]): 220 ± 80 µM
Nc1nc2c(nc(Nc3ccc4c5c(cccc35)C(=O)c3ccccc3-4)n2[C@H]2C[C@H](O)[C@@H](CO)O2)c(=O)[nH]1 [dG^C8-N-ABA, N-(2’-deoxyguanosin-8-yl)-3-aminobenzanthrone]																					replication block among the three major 3-NBA derived DNA adducts [1]: strongest replication block; mutational frequency ([1]; primarily G-to-A transitions followed by G-to-T transversions): 30.6%
O=C1c2ccccc2-c2ccc([N+](=O)[O-])c3cccc1c23 [3-NBA, 3-Nitrobenzanthrone]																					mutagenicity [2]: one of the most mutagenic compound ever tested
Nc1nc2c(ncn2[C@H]2C[C@H](O)[C@@H](COP(=O)(O)OP(=O)(O)OP(=O)(O)O)O2)c(=O)[nH]1 [dGTP]	18 M⁻¹ s⁻¹	1.6	0.02	9600 M⁻¹ s⁻¹	0.48 ± 0.02 s⁻¹	2.6	99.82		0.68 M⁻¹ s⁻¹	66	0.14	22 M⁻¹ s⁻¹	(8.9 ± 0.7) × 10^−4 s^−1	170	84.26		6.5	0.04	400 ± 80 µM	1100 ± 200 µM	kp (Dpo4•DNA binary complex; [10]): (8.1 ± 0.1) × 10^−4 s^−1; Fidelity (Dpo4•DNA binary complex; [12]): 1.4 × 10^−4; (kp/Kd, dNTP)damaged (Dpo4•DNA binary complex; [19]): 1.3 M⁻¹ s⁻¹; Fidelity (Dpo4•DNA binary complex; [19]): 4.1 × 10^−4; Kd (Dpo4•DNA binary complex; [4]): 350 ± 40 µM; Kd (Dpo4•DNA binary complex; [7]): 50 ± 9 µM
Nc1ncnc2c1ncn2[C@H]1C[C@H](O)[C@@H](COP(=O)(O)OP(=O)(O)OP(=O)(O)O)O1 [dATP]	9.1 M⁻¹ s⁻¹	0.85	0.01	6.7 M⁻¹ s⁻¹	(2.9 ± 0.2) × 10^−3 s^−1	2.1	0.07	7.0 × 10^−4	3 M⁻¹ s⁻¹	6.3	0.61	1 M⁻¹ s⁻¹	(4.5 ± 0.2) × 10^−4 s^−1	2.4	3.83	4.3 × 10^−2	0.38	0.34	450 ± 50 µM	470 ± 70 µM	Fidelity (Dpo4•DNA binary complex; [12]): 6.1 × 10^−4; (kp/Kd, dNTP)damaged (Dpo4•DNA binary complex; [19]): 11 M⁻¹ s⁻¹; Fidelity (Dpo4•DNA binary complex; [19]): 3.4 × 10^−4; Kd (Dpo4•DNA binary complex; [4]): 2200 ± 600 µM; Kd (Dpo4•DNA binary complex; [7]): 430 ± 60 µM
Cc1cn([C@H]2C[C@H](O)[C@@H](COP(=O)(O)OP(=O)(O)OP(=O)(O)O)O2)c(=O)[nH]c1=O [dTTP]	16 M⁻¹ s⁻¹	5.4	0.02	5.5 M⁻¹ s⁻¹		1.6	0.05	5.7 × 10^−4	1.6 M⁻¹ s⁻¹	52	0.32	0.4 M⁻¹ s⁻¹	(1.7 ± 0.1) × 10^−4 s^−1	4.5	1.57	1.8 × 10^−2	5.0	0.07	420 ± 80 µM	770 ± 140 µM	(kp/Kd, dNTP)damaged (Dpo4•DNA binary complex; [19]): 2.2 M⁻¹ s⁻¹; Fidelity (Dpo4•DNA binary complex; [19]): 6.9 × 10^−4
B1																					Kd (Dpo4 (DNA polymerase IV)): 0.005 ± 0.0009 µM
B2																					Kd (Dpo4 (DNA polymerase IV)): 0.029 ± 0.007 µM
